Measurements taken from paper PMC6271425, “Synthesis and Sar Study of Diarylpentanoid Analogues as New Anti-Inflammatory Agents” (Molecules, 2014).
Where two headings read alike, the source gives them in different places.

Key:
[1] = test system: NO production in IFN-γ/LPS-stimulated RAW 264.7 macrophages; assay: NO suppression (Griess nitrite determination) in IFN-γ/LPS-stimulated RAW 264.7 macrophages; format: cell-based, murine; conditions: for NO Inhibition at 50 µM (%) ± S.E.M: 50 µM test concentration; for inhibition at 50 µM: RAW264.7, 50 µM test concentration, read-out: NO Inhibition at 50 µM (%) ± S.E.M
Protocol: The synthesized compounds were screened for NO suppression activity in IFN-γ/LPS-stimulated RAW 264.7 macrophages at a 50 µM test concentration. […] The IC50 values of the fifty-seven bioactive compounds were determined and compared to that of the positive control, curcumin. An MTT assay was also carried out to confirm that NO inhibition was not due to cytotoxicity. […] The complete bioassay results of all the compounds are provided as Table S2 in Supplementary Data. RAW 264.7 murine macrophages cells obtained from American Type Culture Collection (ATCC, Rockville, MD, USA) were grown in Dulbecco’s Modified Eagle’s Medium (DMEM) containing 10% fetal bovine serum (FBS) and 1% penicillin/streptomycin in a 95% air and 5% CO2 atmosphere at 37 °C. RAW 264.7 cells at 90%–95% confluency were detached and seeded (50,000 cells/well) into a 96-well culture plate with 50 μL of DMEM and incubated for 24 h. The cells were then stimulated in […] of LPS (Escherichia coli, serotype 0111:B4) and 1 ng/ml of interferon-gamma (IFN-γ) in the presence or absence of test compounds for 17 h. Nitrite concentration was then determined by Griess assay by reacting 50 μL of cell culture supernatant with 50 μL of Griess reagent (1% sulfanilamide and 0.1% N-(1-naphthyl)ethylenediamine dihydrochloride in 2.5% phosphoric acid) at room temperature. The optical density was measured at 550 nm after 5 min of incubation at room temperature with a microplate reader.

[2] = Cell cytotoxicity determination (MTT assay); format: cell-based, murine; conditions: mouse, RAW 264.7 macrophage cells, RAW 264.7 cells, read-out: Cytotoxicity IC50 (µM) ± S.E.M
Protocol: The synthesized compounds were screened for NO suppression activity in IFN-γ/LPS-stimulated RAW 264.7 macrophages at a 50 µM test concentration. […] The IC50 values of the fifty-seven bioactive compounds were determined and compared to that of the positive control, curcumin. An MTT assay was also carried out to confirm that NO inhibition was not due to cytotoxicity. […] The complete bioassay results of all the compounds are provided as Table S2 in Supplementary Data.
RAW 264.7 murine macrophages cells obtained from American Type Culture Collection (ATCC, Rockville, MD, USA) were grown in Dulbecco’s Modified Eagle’s Medium (DMEM) containing 10% fetal bovine serum (FBS) and 1% penicillin/streptomycin in a 95% air and 5% CO2 atmosphere at 37 °C.
Supernatant in each well was removed followed by addition of 100 µL DMEM. Subsequently, 20 µL of 3-(4,5-dimethylthiazol-2-yl)-2,5-diphenyltetrazolium bromide (MTT, 5 mg/mL) was then added and the plate was incubated in a 95% air and 5% CO2 atmosphere at 37 °C for 4 h. The mixture of culture media and MTT in all wells were removed and the purplish formazan crystals formed were dissolved in dimethyl sulfoxide (DMSO) and further incubated for 15 min at room temperature. The color intensity was then measured at 570 nm at room temperature.

[3] = IFN-γ/LPS-stimulated RAW 264.7 cells
[4] = Mus musculus, IFN-γ/LPS-stimulated RAW 264.7 cells
[5] = Mus musculus, RAW264.7, IFN-γ/LPS-stimulated RAW 264.7 cells, read-out: NO Inhibition IC50 (µM) ± S.E.M
[6] = Mus musculus, RAW264.7, Table 6, NO suppression IC50 used for QSAR, unit inferred, read-out: IC50
[7] = Mus musculus, RAW264.7, −log IC50 of NO suppression, read-out: pIC50 (converted)
[8] = IFN-γ/LPS-stimulated RAW 264.7 cells, read-out: NO Inhibition IC50 (µM) ± S.E.M

Structure (SMILES) | NO Inhibition at 50 µM (%) ± S.E.M [1, 3] [%] | inhibition at 50 µM [1, 4] [%] | IC50 [1, 5] [µM] | IC50 [1, 6] [µM] | IC50 [1, 7] [µM] | IC50 [2] [µM] | IC50 [1, 8] [µM]
O=C(/C=C(O)/C=C/c1cccc(Cl)c1)c1cc(Cl)ccc1O [Compound 23] | 66.6 ± 4.1 | 66.6 ± 4.11 | 36.2 ± 0.922 | 36.2 ± 0.9 | 36.3 | 68.4 ± 2.2 | 
COc1ccccc1/C=C/C(O)=C/C(=O)c1cc(Cl)ccc1O [Compound 24] | 70.4 ± 1.3 | 70.4 ± 1.32 | 36 ± 0.515 | 36 ± 0.5 | 36.3 | > 100 | 
COc1cccc(/C=C/C(O)=C/C(=O)c2cc(Cl)ccc2O)c1 [Compound 25] | 76.3 ± 6.5 | 76.3 ± 6.48 | 17.4 ± 0.372 | 17.4 ± 0.4 | 17.4 | > 100 | < 20
COc1cc(/C=C/C(O)=C/C(=O)c2cc(Cl)ccc2O)cc(OC)c1OC [Compound 28] |  | 89.5 ± 5.9 | 13.6 ± 0.532 | 13.6 ± 0.5 | 13.5 | > 100 | < 20
O=C(/C=C(O)/C=C/c1cccs1)c1cc(Cl)ccc1O [Compound 35] | 68.8 ± 4.2 | 68.8 ± 4.21 | 32.17 ± 0.176 | 32.2 ± 0.2 | 32.4 | > 100 | 
O=C(/C=C(O)/C=C/c1ccc(Cl)s1)c1cc(Cl)ccc1O [Compound 36] | 71.6 ± 3.2 | 71.5 ± 3.2 | 25.3 ± 1.73 | 25.3 ± 1.7 | 25.1 | > 100 | 
Cc1ccc(/C=C/C(O)=C/C(=O)c2cc(Cl)ccc2O)s1 [Compound 37] | 56.0 ± 2.6 | 56 ± 2.62 | 62.4 ± 2.29 | 62.4 ± 2.3 | 63.1 | > 100 | 
Cc1ccc(/C=C/C(O)=C/C(=O)c2cc(Cl)ccc2O)o1 [Compound 38] | 73.8 ± 1.1 | 73.8 ± 1.14 | 25.5 ± 1.03 | 25.5 ± 1 | 25.7 | > 100 | 
O=C(/C=C(O)/C=C/c1ccccc1)c1cc(Br)ccc1O [Compound 41] |  | 79.9 ± 8.7 | 20.8 ± 0.54 | 20.8 ± 0.5 | 20.9 | > 100 | 
O=C(/C=C(O)/C=C/c1cccc(Cl)c1)c1cc(Br)ccc1O [Compound 43] | 81.2 ± 5.2 | 81.2 ± 5.16 | 19.8 ± 0.907 | 19.8 ± 0.9 | 20 | > 100 | < 20
COc1ccc(C(=O)/C=C(O)/C=C/c2ccccc2)c(O)c1 [Compound 45] |  | 87.9 ± 5.1 | 29.5 ± 0.469 | 29.5 ± 0.5 | 29.5 | > 100 | 
COc1ccc(C(=O)/C=C(O)/C=C/c2ccccc2Cl)c(O)c1 [Compound 46] | 76.2 ± 4.6 | 76.2 ± 4.57 | 58.5 ± 2.45 | 58.5 ± 2.4 | 58.9 | > 100 | 
COc1cccc(/C=C/C(O)=C/C(=O)c2ccc(OC)cc2O)c1 [Compound 49] | 57.5 ± 6.5 | 57.5 ± 6.45 | 45.8 ± 0.804 | 45.8 ± 0.8 | 45.7 | > 100 | 
COc1ccc(C(=O)/C=C(O)/C=C/c2ccc(OC)c(OC)c2)c(O)c1 [Compound 51] | 58.9 ± 2.8 | 58.9 ± 2.76 | 21.7 ± 0.5 | 21.7 ± 0.5 | 21.9 | > 100 | 
COc1ccc(C(=O)/C=C(O)/C=C/c2cc(OC)c(OC)c(OC)c2)c(O)c1 [Compound 52] | 96.4 ± 0.4 | 96.39 ± 0.37 | 29.3 ± 0.306 | 29.3 ± 0.3 | 29.5 | > 100 | 
COc1ccc(O)c(C(=O)/C=C(O)/C=C/c2ccccc2)c1 [Compound 58] | 92.8 ± 1.8 | 92.8 ± 1.8 | 25.9 ± 0.325 | 25.9 ± 0.3 | 25.7 | > 100 | 
